Assay results taken from patent US8227625B2, “4,5,6,7-tetrahydrobenzo[b]thiophene derivatives and their use as sigma receptor ligands” (Laboratorios del Dr. Esteve, S.A., priority 2006, dated 2012).

Columns and labels:
Sigma-1 receptor = target: T1, Sigma-1 receptor (Cavia porcellus, UniProt Q60492); experiment: Sigma-1 receptor radioligand binding assay, [3H](+)-pentazocine, guinea pig brain membranes; conditions: [3H](+)-pentazocine 0.5 nM; for % Binding σ1 10^−7M: compound at 10^−7M; for % Binding σ1 10^−8M: compound at 10^−8M
T1 construct: from tissue; host or cells: guinea pig brain membranes
Protocol: Brain membrane preparation and binding assays for the al-receptor were performed as described (DeHaven-Hudkins et al., 1992) with some modifications. In brief, guinea pig brains were homogenized in 10 vols. (w/v) of Tris-HCl 50 mM 0.32 M sucrose, pH 7.4, with a Kinematica Polytron PT 3000 at 15000 r.p.m. for 30 s. The homogenate was centrifuged at 1000 g for 10 min at 4° C. and the supernatants collected and centrifuged again at 48000 g for 15 min at 4° C. The pellet was resuspended in 10 volumes of Tris-HCl buffer (50 mM, pH 7.4), incubated at 37° C. for 30 min, and centrifuged at 48000 g for 20 min at 4° C. Following this, the pellet was resuspended in fresh Tris-HCl buffer (50 mM, pH 7.4) and stored on ice until use.
Each assay tube contained 10 μL of [^3H](+)-pentazocine (final concentration of 0.5 nM), 900 μL of the tissue suspension to a final assay volume of 1 mL and a final tissue concentration of approximately 30 mg tissue net weight/mL. Non-specific binding was defined by addition of a final concentration of 1 μM haloperidol. All tubes were incubated at 37° C. for 150 min before termination of the reaction by rapid filtration over Schleicher & Schuell GF 3362 glass fibre filters [previously soaked in a solution of 0.5% polyethylenimine for at least 1 h]. Filters were then washed with four times with 4 mL of cold Tris-HCl buffer (50 mM, pH 7.4). Following addition of scintillation cocktail, the samples were allowed to equilibrate overnight. The amount of bound radioactivity was determined by liquid scintillation spectrometry using a Wallac Winspectral 1414 liquid scintillation counter. Protein concentrations were determined by the method of Lowry et al. (1951).

T1 sequence (Q60492 whole entry): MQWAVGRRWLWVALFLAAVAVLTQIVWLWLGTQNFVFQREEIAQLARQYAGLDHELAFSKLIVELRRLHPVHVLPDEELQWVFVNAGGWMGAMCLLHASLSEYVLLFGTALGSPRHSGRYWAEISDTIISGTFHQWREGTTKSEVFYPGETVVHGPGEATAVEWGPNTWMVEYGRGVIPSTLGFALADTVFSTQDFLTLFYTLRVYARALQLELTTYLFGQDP

Compound	% Binding σ1 10^−7M (Sigma-1 receptor)	% Binding σ1 10^−8M (Sigma-1 receptor)	melting point
CC1CCN(C/C=C2\CCCc3sccc32)CC1 [Example 11, (E)-1-(2-(6,7-dihydrobenzo[b]thien-4(5H)-ylidene)ethyl)-4-methylpiperidine]	70.9%	18.2%	–
C(/CN1CCCCC1)=C1/CCCc2sccc21 [Example 9, (E)-1-(2-(6,7-dihydrobenzo[b]thien-4(5H)-ylidene)ethyl)piperidine]	23%	5%	–
CN(C/C=C1\CCCc2sccc21)CCc1ccccc1 [Example 7, (E)-N-(2-(6,7-dihydrobenzo[b]thien-4(5H)-ylidene)ethyl)-N-methyl-2-phenylethanamine]	89.3%	48.6%	–
Cc1ccccc1C1CCN(CCC2CCCc3sccc32)CC1.O=C(O)C(=O)O (stereo not shown) [Example 28, 1-(2-(4,5,6,7-tetrahydrobenzo[b]thiophen-4-yl)ethyl)-4-o-tolylpiperidine oxalate]	–	–	188 to 190 °C
CN(C/C=C1\CCCc2sccc21)Cc1ccccc1 [Example 3, (E)-N-benzyl-2-(6,7-dihydrobenzo[b]thien-4(5H)-ylidene)-N-methylethanamine]	70.6%	27.3%	–
CC1CCN(C/C=C2\CCCc3sccc32)CC1.O=C(O)C(=O)O [Example 12, (E)-1-(2-(6,7-dihydrobenzo[b]thien-4(5H)-ylidene)ethyl)-4-methylpiperidine oxalate]	–	–	139 to 141 °C
Clc1ccc(C2CCN(CCC3CCCc4sccc43)CC2)cc1.O=C(O)C(=O)O (stereo not shown) [Example 34, 4-(4-chlorophenyl)-1-(2-(4,5,6,7-tetrahydrobenzo[b]thiophen-4-yl)ethyl)piperidine oxalate]	–	–	201 to 202 °C
O=C(O)C(=O)O.c1ccc2cc(C3CCN(CCC4CCCc5sccc54)CC3)ccc2c1 (stereo not shown) [Example 50, 4-(naphthalen-2-yl)-1-(2-(4,5,6,7-tetrahydrobenzo[b]thiophen-4-yl)ethyl)piperidine oxalate]	–	–	203 to 205 °C
C(/CN1CCC(c2ccccc2)CC1)=C1/CCCc2sccc21 [Example 5, (E)-1-(2-(6,7-dihydrobenzo[b]thien-4(5H)-ylidene)ethyl)-4-phenylpiperidine]	84.5%	32.8%	–
N#Cc1ccc2c(c1)CN(CCC1CCCc3sccc31)CC2.O=C(O)C(=O)O (stereo not shown) [Example 93, 2-(2-(4,5,6,7-tetrahydrobenzo[b]thiophen-4-yl)ethyl)-1,2,3,4-tetrahydroisoquinoline-7-carbonitrile oxalate]	–	–	180 to 181 °C
COc1ccc(N2CCC3(CCN(CCC4CCCc5sccc54)CC3)C2=O)cc1.O=C(O)C(=O)O (stereo not shown) [Example 85, 2-(4-Methoxyphenyl)-8-[2-(4,5,6,7-tetrahydrobenzo[b]thiophen-4-yl)-ethyl]-2,8diazaspiro[4.5]decan-1-one oxalate]	–	–	205 to 206 °C
